Assay results: patent publication US12077503B2, “Substituted cyclic amides and their use as herbicides” (FMC CORPORATION, priority 2015, dated 2024)

Assays:
Test in all cases: Test E preemergence
Assay type in all cases: in vivo
Conditions in all cases: scale 0 to 100
soybean (Glycine max) = system: soybean (Glycine max)
How it was run: (§1)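 Compound in non-phytotoxic solvent with surfactant is applied preemergence to silt loam soil after sowing, or postemergence to plants 2 to 18 cm tall in peat-based medium. Plants grow in a greenhouse for 14 to 21 d. Each species is then compared with controls and scored visually, 0 (no effect) to 100 (complete control).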

[1] = system: waterhemp (common waterhemp, Amaranthus rudis)
How it was run: as §1

[2] = system: sandbur (southern sandbur, Cenchrus echinatus)
How it was run: as §1

[3] = system: Panicum, fall (fall Panicum, Panicum dichotomiflorum)
How it was run: as §1

[4] = system: pigweed, palmer (palmer pigweed, Amaranthus palmeri)
How it was run: as §1

[5] = system: nutsedge, yellow (yellow nutsedge, Cyperus esculentus)
How it was run: as §1

[6] = system: field bindweed (Convolvulus arvensis)
How it was run: as §1

[7] = system: crabgrass, large (large crabgrass, Digitaria sangumnalis)
How it was run: as §1

corn (Zea mays) = system: corn (Zea mays)
How it was run: as §1

[8] = system: arrowleaf Sida (Sida rhombifolia)
How it was run: as §1

[9] = system: ragweed (common ragweed, Ambrosia elatior)
How it was run: as §1

[10] = system: dayflower, VA (Virginia dayflower, Commelina virginica)
How it was run: as §1

Kochia (Kochia scoparia) = system: Kochia (Kochia scoparia)
How it was run: as §1

[11] = system: foxtail, green (green foxtail, Setaria viridis)
How it was run: as §1

[12] = system: johnsongrass (Sorghum halepense)
How it was run: as §1

[13] = system: surinam grass (Brachiaria decumbens)
How it was run: as §1

[14] = system: velvetleaf (Abutilon theophrasti)
How it was run: as §1

[15] = system: barnyardgrass (Echinochloa crus-galli)
How it was run: as §1

[16] = system: lambsquarters (Chenopodium album)
How it was run: as §1

CN1C[C@H](c2ccc(F)c(F)c2)[C@@H](C(=O)Nc2ccccc2F)C1=O [Compound 596, (3S,4S)-4-(3,4-difluorophenyl)-N-(2-fluorophenyl)-1-methyl-2-oxo-3-pyrrolidinecarboxamide]
Plant response rating: Soybean (soybean (Glycine max); 31 g ai/ha): 0
Plant response rating: Soybean (soybean (Glycine max); 62 g ai/ha): 0
Plant response rating: Soybean (soybean (Glycine max); 125 g ai/ha): 0
Plant response rating: Soybean (soybean (Glycine max); 250 g ai/ha): 0
Plant response rating: Waterhemp ([1]; 31 g ai/ha): 0
Plant response rating: Waterhemp ([1]; 62 g ai/ha): 0
Plant response rating: Waterhemp ([1]; 125 g ai/ha): 0
Plant response rating: Waterhemp ([1]; 250 g ai/ha): 50
Plant response rating: Sandbur ([2]; 31 g ai/ha): 85
Plant response rating: Sandbur ([2]; 62 g ai/ha): 90
Plant response rating: Sandbur ([2]; 125 g ai/ha): 90
Plant response rating: Sandbur ([2]; 250 g ai/ha): 95
Plant response rating: Panicum, Fall ([3]; 31 g ai/ha): 0
Plant response rating: Panicum, Fall ([3]; 62 g ai/ha): 0
Plant response rating: Panicum, Fall ([3]; 125 g ai/ha): 0
Plant response rating: Panicum, Fall ([3]; 250 g ai/ha): 90
Plant response rating: Pigweed, Palmer ([4]; 31 g ai/ha): 0
Plant response rating: Pigweed, Palmer ([4]; 62 g ai/ha): 0
Plant response rating: Pigweed, Palmer ([4]; 125 g ai/ha): 0
Plant response rating: Pigweed, Palmer ([4]; 250 g ai/ha): 40
Plant response rating: Nutsedge, Yellow ([5]; 31 g ai/ha): 0
Plant response rating: Nutsedge, Yellow ([5]; 62 g ai/ha): 0
Plant response rating: Nutsedge, Yellow ([5]; 125 g ai/ha): 0
Plant response rating: Nutsedge, Yellow ([5]; 250 g ai/ha): 0
Plant response rating: Field Bindweed ([6]; 31 g ai/ha): 0
Plant response rating: Field Bindweed ([6]; 62 g ai/ha): 0
Plant response rating: Field Bindweed ([6]; 125 g ai/ha): 0
Plant response rating: Field Bindweed ([6]; 250 g ai/ha): 15
Plant response rating: Crabgrass, Large ([7]; 31 g ai/ha): 95
Plant response rating: Crabgrass, Large ([7]; 62 g ai/ha): 95
Plant response rating: Crabgrass, Large ([7]; 125 g ai/ha): 98
Plant response rating: Crabgrass, Large ([7]; 250 g ai/ha): 98
Plant response rating: Corn (corn (Zea mays); 31 g ai/ha): 0
Plant response rating: Corn (corn (Zea mays); 62 g ai/ha): 0
Plant response rating: Corn (corn (Zea mays); 125 g ai/ha): 0
Plant response rating: Corn (corn (Zea mays); 250 g ai/ha): 0
Plant response rating: Arrowleaf Sida ([8]; 31 g ai/ha): 35
Plant response rating: Arrowleaf Sida ([8]; 62 g ai/ha): 30
Plant response rating: Arrowleaf Sida ([8]; 125 g ai/ha): 30
Plant response rating: Arrowleaf Sida ([8]; 250 g ai/ha): 50
Plant response rating: Ragweed ([9]; 31 g ai/ha): 0
Plant response rating: Ragweed ([9]; 62 g ai/ha): 0
Plant response rating: Ragweed ([9]; 125 g ai/ha): 25
Plant response rating: Ragweed ([9]; 250 g ai/ha): 50
Plant response rating: Dayflower, VA ([10]; 31 g ai/ha): 0
Plant response rating: Dayflower, VA ([10]; 62 g ai/ha): 40
Plant response rating: Dayflower, VA ([10]; 125 g ai/ha): 40
Plant response rating: Dayflower, VA ([10]; 250 g ai/ha): 35
Plant response rating: Kochia (Kochia (Kochia scoparia); 31 g ai/ha): 0
Plant response rating: Kochia (Kochia (Kochia scoparia); 62 g ai/ha): 25
Plant response rating: Kochia (Kochia (Kochia scoparia); 125 g ai/ha): 80
Plant response rating: Kochia (Kochia (Kochia scoparia); 250 g ai/ha): 90
Plant response rating: Foxtail, Green ([11]; 31 g ai/ha): 95
Plant response rating: Foxtail, Green ([11]; 62 g ai/ha): 95
Plant response rating: Foxtail, Green ([11]; 125 g ai/ha): 95
Plant response rating: Foxtail, Green ([11]; 250 g ai/ha): 95
Plant response rating: Johnsongrass ([12]; 31 g ai/ha): 0
Plant response rating: Johnsongrass ([12]; 62 g ai/ha): 0
Plant response rating: Johnsongrass ([12]; 125 g ai/ha): 0
Plant response rating: Johnsongrass ([12]; 250 g ai/ha): 35
Plant response rating: Surinam Grass ([13]; 31 g ai/ha): 35
Plant response rating: Surinam Grass ([13]; 62 g ai/ha): 65
Plant response rating: Surinam Grass ([13]; 125 g ai/ha): 95
Plant response rating: Surinam Grass ([13]; 250 g ai/ha): 95
Plant response rating: Velvetleaf ([14]; 31 g ai/ha): 0
Plant response rating: Velvetleaf ([14]; 62 g ai/ha): 0
Plant response rating: Velvetleaf ([14]; 125 g ai/ha): 0
Plant response rating: Velvetleaf ([14]; 250 g ai/ha): 35
Plant response rating: Barnyardgrass ([15]; 31 g ai/ha): 95
Plant response rating: Barnyardgrass ([15]; 62 g ai/ha): 98
Plant response rating: Barnyardgrass ([15]; 125 g ai/ha): 98
Plant response rating: Barnyardgrass ([15]; 250 g ai/ha): 98
Plant response rating: Lambsquarters ([16]; 31 g ai/ha): 25
Plant response rating: Lambsquarters ([16]; 62 g ai/ha): 25
Plant response rating: Lambsquarters ([16]; 125 g ai/ha): 80
Plant response rating: Lambsquarters ([16]; 250 g ai/ha): 90

CN1C[C@H](c2ccc(C(F)(F)F)cc2)[C@@H](C(=O)Nc2cccc(F)c2F)C1=O [Compound 623, (3S,4S)—N-(2,3-difluorophenyl)-1-methyl-2-oxo-4-[4-(trifluoromethyl)phenyl]-3-pyrrolidinecarboxamide]
Plant response rating: Soybean (soybean (Glycine max); 31 g ai/ha): 0
Plant response rating: Soybean (soybean (Glycine max); 62 g ai/ha): 0
Plant response rating: Soybean (soybean (Glycine max); 125 g ai/ha): 0
Plant response rating: Soybean (soybean (Glycine max); 250 g ai/ha): 0
Plant response rating: Waterhemp ([1]; 31 g ai/ha): 90
Plant response rating: Waterhemp ([1]; 62 g ai/ha): 90
Plant response rating: Waterhemp ([1]; 125 g ai/ha): 95
Plant response rating: Waterhemp ([1]; 250 g ai/ha): 95
Plant response rating: Sandbur ([2]; 31 g ai/ha): 90
Plant response rating: Sandbur ([2]; 62 g ai/ha): 90
Plant response rating: Sandbur ([2]; 125 g ai/ha): 90
Plant response rating: Sandbur ([2]; 250 g ai/ha): 90
Plant response rating: Panicum, Fall ([3]; 31 g ai/ha): 90
Plant response rating: Panicum, Fall ([3]; 62 g ai/ha): 90
Plant response rating: Panicum, Fall ([3]; 125 g ai/ha): 90
Plant response rating: Panicum, Fall ([3]; 250 g ai/ha): 90
Plant response rating: Pigweed, Palmer ([4]; 31 g ai/ha): 75
Plant response rating: Pigweed, Palmer ([4]; 62 g ai/ha): 90
Plant response rating: Pigweed, Palmer ([4]; 125 g ai/ha): 95
Plant response rating: Pigweed, Palmer ([4]; 250 g ai/ha): 95
Plant response rating: Nutsedge, Yellow ([5]; 31 g ai/ha): 0
Plant response rating: Nutsedge, Yellow ([5]; 62 g ai/ha): 20
Plant response rating: Nutsedge, Yellow ([5]; 125 g ai/ha): 40
Plant response rating: Nutsedge, Yellow ([5]; 250 g ai/ha): 80
Plant response rating: Field Bindweed ([6]; 31 g ai/ha): 0
Plant response rating: Field Bindweed ([6]; 62 g ai/ha): 60
Plant response rating: Field Bindweed ([6]; 125 g ai/ha): 70
Plant response rating: Field Bindweed ([6]; 250 g ai/ha): 75
Plant response rating: Crabgrass, Large ([7]; 31 g ai/ha): 98
Plant response rating: Crabgrass, Large ([7]; 62 g ai/ha): 98
Plant response rating: Crabgrass, Large ([7]; 125 g ai/ha): 98
Plant response rating: Crabgrass, Large ([7]; 250 g ai/ha): 98
Plant response rating: Corn (corn (Zea mays); 31 g ai/ha): 0
Plant response rating: Corn (corn (Zea mays); 62 g ai/ha): 60
Plant response rating: Corn (corn (Zea mays); 125 g ai/ha): 75
Plant response rating: Corn (corn (Zea mays); 250 g ai/ha): 65
Plant response rating: Arrowleaf Sida ([8]; 31 g ai/ha): 20
Plant response rating: Arrowleaf Sida ([8]; 62 g ai/ha): 80
Plant response rating: Arrowleaf Sida ([8]; 125 g ai/ha): 85
Plant response rating: Arrowleaf Sida ([8]; 250 g ai/ha): 90
Plant response rating: Ragweed ([9]; 31 g ai/ha): 60
Plant response rating: Ragweed ([9]; 62 g ai/ha): 90
Plant response rating: Ragweed ([9]; 125 g ai/ha): 95
Plant response rating: Ragweed ([9]; 250 g ai/ha): 85
Plant response rating: Dayflower, VA ([10]; 31 g ai/ha): 0
Plant response rating: Dayflower, VA ([10]; 62 g ai/ha): 0
Plant response rating: Dayflower, VA ([10]; 125 g ai/ha): 20
Plant response rating: Dayflower, VA ([10]; 250 g ai/ha): 35
Plant response rating: Kochia (Kochia (Kochia scoparia); 31 g ai/ha): 90
Plant response rating: Kochia (Kochia (Kochia scoparia); 62 g ai/ha): 90
Plant response rating: Kochia (Kochia (Kochia scoparia); 125 g ai/ha): 95
Plant response rating: Kochia (Kochia (Kochia scoparia); 250 g ai/ha): 95
Plant response rating: Foxtail, Green ([11]; 31 g ai/ha): 95
Plant response rating: Foxtail, Green ([11]; 62 g ai/ha): 95
Plant response rating: Foxtail, Green ([11]; 125 g ai/ha): 98
Plant response rating: Foxtail, Green ([11]; 250 g ai/ha): 98
Plant response rating: Johnsongrass ([12]; 31 g ai/ha): 40
Plant response rating: Johnsongrass ([12]; 62 g ai/ha): 60
Plant response rating: Johnsongrass ([12]; 125 g ai/ha): 85
Plant response rating: Johnsongrass ([12]; 250 g ai/ha): 95
Plant response rating: Surinam Grass ([13]; 31 g ai/ha): 75
Plant response rating: Surinam Grass ([13]; 62 g ai/ha): 90
Plant response rating: Surinam Grass ([13]; 125 g ai/ha): 90
Plant response rating: Surinam Grass ([13]; 250 g ai/ha): 90
Plant response rating: Velvetleaf ([14]; 31 g ai/ha): 0
Plant response rating: Velvetleaf ([14]; 62 g ai/ha): 50
Plant response rating: Velvetleaf ([14]; 125 g ai/ha): 65
Plant response rating: Velvetleaf ([14]; 250 g ai/ha): 65
Plant response rating: Barnyardgrass ([15]; 31 g ai/ha): 95
Plant response rating: Barnyardgrass ([15]; 62 g ai/ha): 95
Plant response rating: Barnyardgrass ([15]; 125 g ai/ha): 98
Plant response rating: Barnyardgrass ([15]; 250 g ai/ha): 98
Plant response rating: Lambsquarters ([16]; 31 g ai/ha): 90
Plant response rating: Lambsquarters ([16]; 62 g ai/ha): 90
Plant response rating: Lambsquarters ([16]; 125 g ai/ha): 100
Plant response rating: Lambsquarters ([16]; 250 g ai/ha): 95
